Experimental data: BindingDB's records for doi:10.1074/jbc.M804990200 (Harvard Medical School, 2008)

Columns and labels:
Assay in all cases: Continuous Assay
[1] = target: T1, Dihydroorotate dehydrogenase (quinone), mitochondrial (Plasmodium falciparum, UniProt Q54A96)
T1 sequence (Q54A96 whole entry): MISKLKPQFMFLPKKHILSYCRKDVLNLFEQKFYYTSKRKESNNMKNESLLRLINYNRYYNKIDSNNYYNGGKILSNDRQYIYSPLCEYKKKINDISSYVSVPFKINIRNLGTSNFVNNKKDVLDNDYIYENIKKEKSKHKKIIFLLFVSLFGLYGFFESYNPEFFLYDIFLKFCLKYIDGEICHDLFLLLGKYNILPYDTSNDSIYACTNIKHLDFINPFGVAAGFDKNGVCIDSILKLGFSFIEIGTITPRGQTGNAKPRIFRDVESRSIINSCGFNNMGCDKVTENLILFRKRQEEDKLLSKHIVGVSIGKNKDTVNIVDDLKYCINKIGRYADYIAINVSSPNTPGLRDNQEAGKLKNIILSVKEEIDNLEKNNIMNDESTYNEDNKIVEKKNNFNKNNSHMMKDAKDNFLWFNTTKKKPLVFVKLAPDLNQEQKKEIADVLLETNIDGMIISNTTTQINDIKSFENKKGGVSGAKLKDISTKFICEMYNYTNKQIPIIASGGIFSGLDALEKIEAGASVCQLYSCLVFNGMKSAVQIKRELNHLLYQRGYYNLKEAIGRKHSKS
Procedure: (§1) Assay was determined using a continuous assay.

[2] = target: Dihydroorotate dehydrogenase (quinone), mitochondrial (Homo sapiens, UniProt Q02127)
Procedure: as §1

[3] = target: T2, Dihydroorotate dehydrogenase (quinone), mitochondrial [100-517] (Plasmodium berghei (strain Anka), UniProt A0A509AEH5)
T2 construct: 100-517
T2 sequence (A0A509AEH5 whole entry): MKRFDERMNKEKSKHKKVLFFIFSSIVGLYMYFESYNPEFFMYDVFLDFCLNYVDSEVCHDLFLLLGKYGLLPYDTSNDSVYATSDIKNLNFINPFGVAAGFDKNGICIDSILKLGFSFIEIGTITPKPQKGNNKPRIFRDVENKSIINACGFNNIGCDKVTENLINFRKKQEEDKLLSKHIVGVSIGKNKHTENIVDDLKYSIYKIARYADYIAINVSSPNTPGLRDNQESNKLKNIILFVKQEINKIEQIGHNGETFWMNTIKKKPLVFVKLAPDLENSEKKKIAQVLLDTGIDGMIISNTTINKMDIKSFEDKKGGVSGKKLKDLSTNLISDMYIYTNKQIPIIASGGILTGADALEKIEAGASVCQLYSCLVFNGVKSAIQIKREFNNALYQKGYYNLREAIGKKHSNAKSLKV
Procedure: as §1

[4] = target: T3, Dihydroorotate dehydrogenase (quinone), mitochondrial (Plasmodium vivax (strain Salvador I), UniProt A5K1N1)
T3 sequence (A5K1N1 whole entry): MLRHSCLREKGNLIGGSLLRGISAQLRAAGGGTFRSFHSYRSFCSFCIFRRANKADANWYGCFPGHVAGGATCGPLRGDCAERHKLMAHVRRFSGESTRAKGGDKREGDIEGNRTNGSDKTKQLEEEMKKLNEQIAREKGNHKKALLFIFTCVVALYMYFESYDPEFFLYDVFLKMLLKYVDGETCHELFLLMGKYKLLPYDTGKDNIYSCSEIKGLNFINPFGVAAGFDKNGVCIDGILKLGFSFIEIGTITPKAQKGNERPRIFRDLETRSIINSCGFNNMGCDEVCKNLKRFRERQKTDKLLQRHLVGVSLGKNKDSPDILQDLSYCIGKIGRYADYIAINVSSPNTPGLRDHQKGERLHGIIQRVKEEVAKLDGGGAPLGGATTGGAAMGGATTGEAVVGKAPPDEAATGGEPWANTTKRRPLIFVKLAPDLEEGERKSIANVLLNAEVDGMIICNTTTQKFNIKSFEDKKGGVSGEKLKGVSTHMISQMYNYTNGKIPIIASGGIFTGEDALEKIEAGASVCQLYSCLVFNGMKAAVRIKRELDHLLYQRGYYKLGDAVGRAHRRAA
Procedure: as §1

Chain of Dihydroorotate dehydrogenase (quinone), mitochondrial (Homo sapiens, UniProt Q02127) (Q02127 whole entry): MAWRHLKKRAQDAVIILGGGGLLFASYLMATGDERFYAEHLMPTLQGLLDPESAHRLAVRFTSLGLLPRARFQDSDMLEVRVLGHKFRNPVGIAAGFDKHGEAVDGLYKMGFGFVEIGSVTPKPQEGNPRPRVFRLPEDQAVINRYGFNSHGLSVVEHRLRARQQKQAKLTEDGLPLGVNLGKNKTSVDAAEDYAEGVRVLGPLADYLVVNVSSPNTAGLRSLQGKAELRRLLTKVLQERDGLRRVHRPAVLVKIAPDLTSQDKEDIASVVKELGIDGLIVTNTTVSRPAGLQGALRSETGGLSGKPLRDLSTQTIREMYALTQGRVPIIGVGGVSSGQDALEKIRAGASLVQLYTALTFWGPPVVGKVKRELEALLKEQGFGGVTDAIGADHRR

| SMILES | IC50 [1] [nM] | IC50 [2] [nM] | IC50 [3] [nM] | IC50 [4] [nM] |
| --- | --- | --- | --- | --- |
| O=C(NC1CC1)c1ccc(N2CCSc3ccccc32)s1 [US8703811, 5] | 250 | – | – | – |
| CCCNC(=O)c1ccc(-n2c(C)cc3ccccc32)s1 [US8703811, 1] | 420 | > 30000 | – | – |
| Cc1ccccc1/C=C/c1cc(O)c2ccccc2n1 [US8703811, 2] | 930 | > 30000 | 560 | 5600 |
| CCOC(=O)c1[nH]c(C)c(Cc2ccc(OCC)cc2)c1C [US8703811, 6] | 83 | > 30000 | 60 | – |
| CCCCCC1CCCc2c1nc1ccccc1c2O (centres undefined) [US8703811, 3] | 340 | > 30000 | 110 | 510 |
